Results from patent publication US20260049106A1, “PEPTIDE COMPOSITIONS AND METHODS OF USE” (ONL Therapeutics, Inc., priority 2022, published 2026).
Ends that are not written are not given here.

Test system: not given
Test: not given
Conditions: apparently clear solution in 20 mM citrate buffer pH 2.8, in vitro and in vivo assays; cited from earlier work
In the case of “H^60HIYLGAVNYIY^71 (HHIYLGAVNYIY) [Met-12]”, the loss in activity is listed as “at least a fivefold loss in activity”.

Test system: Jurkat cells
Test: Cell viability preservation in vitro: cell confluence of Jurkat cells after 24-hour incubation with or without recombinant His-tagged FasL and anti-His antibody
Type: cell-based
Conditions: Incucyte / Vi-CELL
Experimental: Compounds (oligopeptides) of the present disclosure were assayed for their ability to effect cell confluence following a 24-hour incubation. Jurkat cells were incubated for 24 hours with varying concentrations of compound (i.e., 200, 66.7, 22.2, 7.4, 2.5, 0.8, 0.3, and 0.1) and with or without recombinant His-tagged FasL along with an anti-His antibody. After the 24-hour incubation, cell confluence was quantified using an S3 Incucyte Imaging System (Sartorius) and a Vi-CELL XR Cell Viability Analyzer (Beckman Coulter) and compared to controls (cells incubated in the absence of compound and cells incubated with a known Fas inhibitor).
With “HHIYLGAVNYIY-NH2 [Compound A, reference compound]” the “Activity (lowest concentration that prevented loss of cell confluency)” value was “A (cell protection at x < 1.0 μM)”.
With “NH2-HHIAAGAVNYIY-C(O)NH2 (H-HHIAAGAVNYIY-NH2) [Compound 6]” the “Activity (lowest concentration that prevented loss of cell confluency)” value was “B (cell protection at 1.0 < x < 10.0 μM)”.
With “NH2-HHIYLGGGGGNYIY-C(O)NH2 (H-HHIYLGGGGGNYIY-NH2) [Compound 7]” the “Activity (lowest concentration that prevented loss of cell confluency)” value was “B (cell protection at 1.0 < x < 10.0 μM)”.
For “NH2-HHIYLGSSSSNYIY-C(O)NH2 (H-HHIYLGSSSSNYIY-NH2) [Compound 8]”, the “Activity (lowest concentration that prevented loss of cell confluency)” value was “B (cell protection at 1.0 < x < 10.0 μM)”.
In the case of “NH2-HKIYLGAVNYIY-C(O)NH2 (H-HKIYLGAVNYIY-NH2) [Compound 11]”, the “Activity (lowest concentration that prevented loss of cell confluency)” value is reported as “B (cell protection at 1.0 < x < 10.0 μM)”.
In the case of “NH2-KHIYLGAVNYIY-C(O)NH2 (H-KHIYLGAVNYIY-NH2) [Compound 10]”, the “Activity (lowest concentration that prevented loss of cell confluency)” value is reported as “A (cell protection at x < 1.0 μM)”.
In the case of “NH2-KKIYLGAVNYIY-C(O)NH2 (H-KKIYLGAVNYIY-NH2) [Compound 9]”, the “Activity (lowest concentration that prevented loss of cell confluency)” value is reported as “B (cell protection at 1.0 < x < 10.0 μM)”.

Test system: photoreceptor cells
Test: not given
Conditions: cell culture experiments; separation of the retinal and retinal pigment epithelium; cited from earlier work
For “H^60HIYLGAVNYIY^71 (HHIYLGAVNYIY) [Met-12]”, the photoreceptor protection is listed as “photoreceptor protective”.
